Source: patent US9938262B2, “Benzamides” (Merck Patent GmbH, priority 2011, dated 2018)

The compounds below were run against T1, FSHR (Homo sapiens, UniProt P23945) (assay: EC50 of cyclic AMP production in CHO FSHR cells + EC20 FSH (Assay A)). Conditions: 1 h; 5 μM; effect relative to maximum response of the FSH standard; Table 1.
T1 construct: expressed in transfected cells; host or cells: CHO (Cho-FSHR-LUC-1-1-43)
Format: cell-based
Summary of the method: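 cAMP HTRF ratio (665/620 nm) read after 1 h, 37 °C exposure of CHO-FSHR cells to compound in presence of EC20 FSH ([…]) and IBMX 200 μM. Responses given relative to FSH standard maximum; EC50 derived.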

T1 sequence (P23945 18-695): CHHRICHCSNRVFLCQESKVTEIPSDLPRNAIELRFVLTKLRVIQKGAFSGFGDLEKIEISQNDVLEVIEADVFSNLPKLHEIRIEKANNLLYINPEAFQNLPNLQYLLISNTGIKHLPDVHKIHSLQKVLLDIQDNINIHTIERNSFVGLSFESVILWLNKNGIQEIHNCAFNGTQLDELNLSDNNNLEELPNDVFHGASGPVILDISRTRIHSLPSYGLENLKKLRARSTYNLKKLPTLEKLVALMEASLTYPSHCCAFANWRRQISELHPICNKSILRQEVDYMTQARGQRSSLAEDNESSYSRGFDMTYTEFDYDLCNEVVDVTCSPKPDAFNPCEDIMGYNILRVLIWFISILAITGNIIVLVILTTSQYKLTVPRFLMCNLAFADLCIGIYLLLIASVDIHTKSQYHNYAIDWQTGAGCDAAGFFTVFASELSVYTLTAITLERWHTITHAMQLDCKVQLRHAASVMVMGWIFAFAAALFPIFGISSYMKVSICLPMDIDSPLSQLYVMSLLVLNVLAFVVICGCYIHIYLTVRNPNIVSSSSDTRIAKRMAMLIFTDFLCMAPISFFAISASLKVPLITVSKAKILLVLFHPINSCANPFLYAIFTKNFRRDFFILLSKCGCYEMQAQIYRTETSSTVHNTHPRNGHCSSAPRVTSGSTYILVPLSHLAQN
T1 sequence (P01215 25-116 partner): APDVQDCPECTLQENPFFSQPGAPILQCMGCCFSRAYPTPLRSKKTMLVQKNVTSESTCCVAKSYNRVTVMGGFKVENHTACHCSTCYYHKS
T1 sequence (P01225 19-129 partner): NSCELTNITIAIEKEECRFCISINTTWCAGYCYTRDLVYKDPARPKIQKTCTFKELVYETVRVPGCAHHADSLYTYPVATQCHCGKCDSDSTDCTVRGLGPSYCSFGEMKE

activation at 5 µM [%] | SMILES
42 | CCOC(=O)N1CCN(c2ccc(C(=O)NCCCN3CCCC3=O)cc2NC(=O)c2ccco2)CC1 [Compound 62, 4-{2-[(Furan-2-carbonyl)-amino]-4-[3-(2-oxo-pyrrolidin-1-yl)-propylcarbamoyl]-phenyl}-piperazine-1-carboxylic acid ethyl ester]
12 | Cc1ccc(N2CCN(c3ccc(C(=O)NCCCN4CCCC4=O)cc3NC(=O)c3coc(C4CC4)n3)CC2)cc1 [Compound 245]
4 | CC(=O)N1CCN(C(=O)c2ccc(N3CCN(c4ccccc4C)CC3)c(NC(=O)c3ccco3)c2)CC1 [Compound 23]
47 | Cc1ccccc1N1CCN(c2ccc(C(=O)NCCCN3CCCC3=O)cc2NC(=O)c2cccc(N(C)C)c2)CC1 [Compound 86]

Same assay, conditions: CHO FSHR cells + EC20 FSH; Table 1; read-out: Assay A EC50 of cyclic AMP production

EC50 [nM] | SMILES
1000 to 10000 | CC(=O)N1CCC(NC(=O)c2ccc(N3CCN(c4ccccc4C)CC3)c(NC(=O)c3ccco3)c2)CC1 [Compound 56, Furan-2-carboxylic acid [5-(1-acetyl-piperidin-4-ylcarbamoyl)-2-(4-o-tolyl-piperazin-1-yl)-phenyl]-amide]
1000 to 10000 | Cc1ccccc1N1CCN(c2ccc(C(=O)NCCCN3CCCC3=O)cc2NC(=O)c2sccc2Br)CC1 [Compound 4]
100 to 1000 | COc1ccc(CNC(=O)c2ccc(N3CCN(c4ccccc4C)CC3)c(NC(=O)c3ccco3)c2)cc1OC [Compound 17]
1000 to 10000 | Cc1ccc(C(=O)Nc2cc(C(=O)NCCCN3CCCC3=O)ccc2N2CCCN(c3ccccc3C)CC2)o1 [Compound 194, 5-Methyl-furan-2-carboxylic acid [5-[3-(2-oxo-pyrrolidin-1-yl)-propylcarbamoyl]-2-(4-o-tolyl-[1,4]diazepan-1-yl)-phenyl]-amide]
1000 to 10000 | Cc1ccccc1N1CCN(c2ccc(C(=O)NCCCN3CCCC3=O)cc2NC(=O)c2csc(Br)n2)CC1 [Compound 101]
1000 to 10000 | Cc1ccccc1N1CCN(c2ccc(C(=O)NCCCN3CCCC3)cc2NC(=O)c2ccco2)CC1 [Compound 117]
> 10000 | Cc1ccc(C(=O)Nc2cc(C(=O)NCCCN3CCCC3=O)ccc2N2CCC(c3ccccc3C)CC2)o1 [Compound 165, 5-Methyl-furan-2-carboxylic acid [5-[3-(2-oxo-pyrrolidin-1-yl)-propylcarbamoyl]-2-(4-o-tolyl-piperidin-1-yl)-phenyl]-amide]
1000 to 10000 | Cc1ccccc1N1CCN(c2ccc(C(=O)N[C@@H](C)C(=O)NC3CCCC3)cc2NC(=O)c2ccco2)CC1 [Compound 91]
100 to 1000 | Cc1ccccc1N1CCN(c2ccc(C(=O)NCCCc3cn[nH]c3)cc2NC(=O)c2coc(C3CC3)n2)CC1 [Compound 232]
100 to 1000 | Cc1ccccc1N1CCN(c2ccc(C(=O)NCCCN3CCCC3=O)cc2NC(=O)c2ncoc2C)CC1 [Compound 78]
1000 to 10000 | Cc1ccccc1N1CCN(c2ccc(C(=O)NCCCN3CCCC3=O)cc2NC(=O)C2CCCCC2)CC1 [Compound 82]
100 to 1000 | CCC(C)(C)C(=O)N(C)CCNC(=O)c1ccc(N2CCN(c3ccccc3C)CC2)c(NC(=O)c2ccco2)c1 [Compound 133, Furan-2-carboxylic acid [5-{2-[(2,2-dimethyl-butyryl)-methyl-amino]-ethylcarbamoyl}-2-(4-o-tolyl-piperazin-1-yl)-phenyl]-amide]
1000 to 10000 | Cc1ccccc1N1CCN(c2ccc(C(=O)NCCCN3CCCC3=O)cc2NC(=O)c2ccc(C#N)cc2)CC1 [Compound 33]
> 10000 | Cc1ccccc1N1CCN(c2ccc(C(=O)NCCCN3CCCC3=O)cc2NC(=O)c2ccc(C(N)=O)o2)CC1 [Compound 216, Furan-2,5-dicarboxylic acid 2-amide 5-{[5-[3-(2-oxo-pyrrolidin-1-yl)-propylcarbamoyl]-2-(4-o-tolyl-piperazin-1-yl)-phenyl]-amide}]

Same assay, conditions: CHO FSHR cells + EC20 FSH; Table 2; read-out: Assay A EC50 of cyclic AMP production

EC50 [nM] | SMILES
100 to 1000 | Cc1ccccc1N1CCN(c2ccc(C(=O)NCCCNC(=O)c3ccncc3)cc2NC(=O)c2coc(C3CC3)n2)CC1 [Compound 442]
100 to 1000 | Cc1ccccc1N1CCN(c2ccc(C(=O)NCc3cccc(C(=O)N(C)C)c3)cc2NC(=O)c2ccco2)CC1 [Compound 485]
100 to 1000 | Cc1ccccc1N1CCN(c2ccc(C(=O)NC(C)c3ccccc3)cc2NC(=O)c2coc(C3CC3)n2)CC1 (centres unmarked) [Compound 346]
100 to 1000 | Cc1ccccc1N1CCN(c2ccc(C(=O)NC3(c4cccc(C(N)=O)c4)CC3)cc2NC(=O)c2ccco2)CC1 [Compound 325]
100 to 1000 | Cc1ccccc1N1CCN(c2ccc(C(=O)NCc3cccc(CN)c3)cc2NC(=O)c2ccco2)CC1 [Compound 327]
100 to 1000 | Cc1ccccc1N1CCN(c2ccc(C(=O)N3CC4(COC4)C3)cc2NC(=O)c2coc(C3CC3)n2)CC1 [Compound 590]
1000 to 10000 | Cc1ccccc1N1CCN(c2ccc(C(=O)NC(C)(C)c3cccc(CN(C)C)c3)cc2NC(=O)c2ccco2)CC1 [Compound 487]
1000 to 10000 | Cc1ccccc1N1CCN(c2ccc(C(=O)NCCCN3CCCC3=O)cc2NC(=O)c2nnc(C3CC3)o2)CC1 [Compound 466]
100 to 1000 | CCNC(=O)N(C)CCCNC(=O)c1ccc(N2CCN(c3ccccc3C)CC2)c(NC(=O)c2coc(C3CC3)n2)c1 [Compound 367]
100 to 1000 | Cc1ccccc1N1CCN(c2ccc(C(=O)NCCCN3C(=O)[C@@H]4C=C[C@H]3C4)cc2NC(=O)c2coc(C3CC3)n2)CC1 [Compound 352]
1000 to 10000 | O=C(NCCCN1CCCC1=O)c1ccc(N2CCN(c3cccnn3)CC2)c(NC(=O)c2coc(C3CC3)n2)c1 [Compound 596]
100 to 1000 | Cc1ccccc1N1CCN(c2ccc(C(=O)NCCCn3cccc3)cc2NC(=O)c2coc(C3CC3)n2)CC1 [Compound 279]
> 10000 | Cc1ccccc1N1CCN(c2ccc(C(=O)NCCCN3CCCC3=O)cc2NC(=O)c2nccn2C)CC1 [Compound 415]
100 to 1000 | Cc1ccccc1N1CCN(c2ccc(C(=O)NCC[C@H]3COC(C)(C)O3)cc2NC(=O)c2coc(C3CC3)n2)CC1 [Compound 535]
1000 to 10000 | Cc1nc(C(=O)Nc2cc(C(=O)NCCc3cnc[nH]3)ccc2N2CCN(c3ccccc3C)CC2)cs1 [Compound 301]
100 to 1000 | Cc1ccccc1N1CCN(c2ccc(C(=O)NCCCn3ccnc3)cc2NC(=O)c2coc(C3CC3)n2)CC1 [Compound 291]
100 to 1000 | Cc1ccccc1N1CCN(c2ccc(C(=O)NCCCn3nccc3C3CC3)cc2NC(=O)c2ccco2)CC1 [Compound 374]
100 to 1000 | Cc1ccccc1N1CCN(c2ccc(C(=O)NCCCN3CCCC3=O)cc2NC(=O)c2cc(C3CC3)n[nH]2)CC1 [Compound 284]
100 to 1000 | Cc1ccccc1N1CCN(c2ccc(C(=O)NCCN3CCOC3=O)cc2NC(=O)c2coc(C3CC3)n2)CC1 [Compound 350]
100 to 1000 | Cc1ccccc1N1CCN(c2ccc(C(=O)NC[C@@H](O)c3ccccc3)cc2NC(=O)c2ccco2)CC1 [Compound 582]
< 100 | Cc1ccccc1N1CCN(c2ccc(C(=O)NCCCN3CCNC3=O)cc2NC(=O)c2ccco2)CC1 [Compound 468]

EC50 [nM] | SMILES
1000 to 10000 | Cc1ccc(C(=O)Nc2cc(C(=O)NC[C@@H](O)c3ccccc3)ccc2N2CCN(c3ccccc3C)CC2)o1 [Compound 583]
100 to 1000 | CCCCNC(=O)NCCCNC(=O)c1ccc(N2CCN(c3ccccc3C)CC2)c(NC(=O)c2ccco2)c1 [Compound 491]
100 to 1000 | Cc1ccccc1N1CCN(c2ccc(C(=O)NCCCN3CCCC3=O)cc2NC(=O)c2coc(C3CC3)n2)CC1 [Compound 436]
100 to 1000 | N#Cc1ccccc1N1CCN(c2ccc(C(=O)NCCCN3CCCC3=O)cc2NC(=O)c2coc(C3CC3)n2)CC1 [Compound 525]
100 to 1000 | Cc1ccccc1N1CCN(c2ccc(C(=O)NCCCn3cncn3)cc2NC(=O)c2coc(C3CC3)n2)CC1 [Compound 396]
1000 to 10000 | Cn1ccnc1N1CCN(c2ccc(C(=O)NCCCN3CCCC3=O)cc2NC(=O)c2coc(C3CC3)n2)CC1 [Compound 483]
1000 to 10000 | Cc1cnccc1N1CCN(c2ccc(C(=O)NCCc3cnc[nH]3)cc2NC(=O)c2coc(C3CC3)n2)CC1 [Compound 457]
1000 to 10000 | Cc1ccccc1N1CCN(c2ccc(C(=O)N3CCC4(COC4)C3)cc2NC(=O)c2ccco2)CC1 [Compound 587]
100 to 1000 | CN(C)c1ccc(N2CCN(c3ccc(C(=O)NCCCN4CCCC4=O)cc3NC(=O)c3coc(C4CC4)n3)CC2)nn1 [Compound 602]
1000 to 10000 | Cc1ccccc1N1CCN(c2ccc(C(=O)N3CCC4(COC4)C3)cc2NC(=O)c2coc(C3CC3)n2)CC1 [Compound 594]
1000 to 10000 | Cc1ccccc1N1CCN(c2ccc(C(=O)NCCCC(=O)CN(c3ccccc3)c3ccccc3)cc2NC(=O)c2coc(C3CC3)n2)CC1 [Compound 361]
100 to 1000 | Cc1ccccc1N1CCN(c2ccc(C(=O)NCCCNC(=O)c3ccccc3)cc2NC(=O)c2coc(C3CC3)n2)CC1 [Compound 434]
100 to 1000 | Cc1cncnc1N1CCN(c2ccc(C(=O)NCCCN3CCOC3=O)cc2NC(=O)c2coc(C3CC3)n2)CC1 [Compound 460]
100 to 1000 | Cc1ccccc1N1CCN(c2ccc(C(=O)NCCCN3CCC[C@H]3C(N)=O)cc2NC(=O)c2ccco2)CC1 [Compound 609]
< 100 | CCCNC(=O)NCCCNC(=O)c1ccc(N2CCN(c3ccccc3C)CC2)c(NC(=O)c2ccco2)c1 [Compound 490]
100 to 1000 | Cc1ccccc1N1CCN(c2ccc(C(=O)NCCCN3CCCC3=O)cc2NC(=O)c2cnc(C3CC3)s2)CC1 [Compound 383]
100 to 1000 | Cc1ccccc1N1CCN(c2ccc(C(=O)NCCCN3C(=O)CN(C)C3=O)cc2NC(=O)c2coc(C3CC3)n2)CC1 [Compound 296]
100 to 1000 | Cc1ccccc1N1CCN(c2ccc(C(=O)NCc3ccc(CN(C)C)cc3)cc2NC(=O)c2ccco2)CC1 [Compound 455]
< 100 | Cc1ccccc1N1CCN(c2ccc(C(=O)NCCCc3ccc(O)cc3)cc2NC(=O)c2ccco2)CC1 [Compound 388]
100 to 1000 | Cc1cnc(CCCNC(=O)c2ccc(N3CCN(c4ccccc4C)CC3)c(NC(=O)c3coc(C4CC4)n3)c2)s1 [Compound 430]
